Source: patent US9290490B2 (Merck Sharp & Dohme Corp., priority 2011, dated 2016)
Like-named read-outs stand apart in the source and are kept apart here.

Target: recombinant human GST-Syk (Homo sapiens (Human), UniProt P43405)
Assay: Homogeneous Time-Resolved Fluorescence (HTRF) Assay for the Recombinant Human Syk Enzyme
Assay type: biochemical
Conditions: recombinant human GST-Syk 5 pM, ATP 25 μM
Protocol: Homogeneous Time-Resolved Fluorescence (HTRF) Assay for the Recombinant Human Syk Enzyme:
A recombinant GST-hSyk fusion protein was used to measure potency of compounds to inhibit human Syk activity. The recombinant human GST-Syk (Carna Biosciences #08-176) (5 pM final concentration) was incubated with various concentrations of the inhibitor diluted in DMSO (0.1% final concentration) for 10 minutes at room temperature in 15 mM Tris-HCl (pH 7.5), 0.01% tween 20, 2 mM DTT in 384 well plate format. To initiate the reaction the biotinylated substrate peptide (250 nM final concentration) that contains the phosphorylation site for Syk was added with magnesium (5 mM final concentration) and ATP (25 μM final concentration). Final volume of the reaction was 10 μL. Phosphorylation of the peptide was allowed to proceed for 45′ at room temperature. To quench the reaction and detect the phosphorylated product, 2 nM of a Europium-anti-phosphotyrosine antibody (Perkin Elmer #AD0161) and 70 nM SA-APC (Perkin-Elmer #CR130-100) were added together in 15 mM Tris pH 7.5, 40 mM EDTA, 0.01% Tween 20. Final volume of the quenching solution was 10 μL. The resulting HTRF signal was measured after 30 minutes on a EnVision (Perkin-Elmer) reader using a time-resolved fluorescence protocol. […] IC50 values are also provided for the following representative compounds: […]

[1] = read-out: rhSyk Activity (IC50)
[2] = 10-dose titration, read-out: rhSyk

| Structure (SMILES) | IC50 [1] [nM] | IC50 [2] [nM] |
| --- | --- | --- |
| Cc1cc(Nc2nccc(C(F)(F)F)n2)cc(-c2cnc(C(O)C3CCC(O)CC3(C)C)s2)c1 (stereo not shown) [Example 12, 4-{hydroxy[5-(3-methyl-5-{[4-(trifluoromethyl)pyrimidin-2-yl]amino}phenyl)-1,3-thiazol-2-yl]methyl}-3,3-dimethylcyclohexanol] | ≤ 100 |  |
| CCCCC(=O)OC1CCC(C(C)(O)c2ncc(-c3cc(C)cc(Nc4ncc(F)c(OC)n4)c3)s2)CC1 (stereo not shown) [Example 2-73] | 1000 to 10000 | 1460 |
| Cc1cc(Nc2nccc(C)n2)cc(-c2cnc(C(C)(O)C3CCC(NOC(=O)Cc4ccccc4)CC3)s2)c1 (stereo not shown) [Example 2-57] | 100 to 1000 | 123 |
| Cc1cc(Nc2nccc(C(F)(F)F)n2)cc(-c2cnc(C(O)C3CCC4(CC3)OCCO4)s2)c1 (stereo not shown) [Example 22, 1,4-dioxaspiro[4.5]dec-8-yl[5-(3-methyl-5-{[4-(trifluoromethyl)pyrimidin-2-yl]amino}phenyl)-1,3-thiazol-2-yl]methanol] | 100 to 1000 | 197 |
| Cc1cc(Nc2nccc(C(F)(F)F)n2)cc(-c2cnc(C(O)[C@H]3CC[C@H](C(N)=O)CC3)s2)c1 [Example 7 (trans isomer), trans-4-{hydroxy[5-(3-methyl-5-{[4-(trifluoromethyl)pyrimidin-2-yl]amino}phenyl)-1,3-thiazol-2-yl]methyl}cyclohexanecarboxamide] | ≤ 100 | 35 |

Other lines, results leading:

| IC50 [1] [nM] | IC50 [2] [nM] | Structure (SMILES) |
| --- | --- | --- |
| ≤ 100 |  | Cc1cc(Nc2nccc(C(F)(F)F)n2)cc(-c2cnc(C(C)(O)C3CCC(C)(O)CC3)s2)c1 (stereo not shown) [Example 23, 4-{1-hydroxy-1-[5-(3-methyl-5-{[4-(trifluoromethyl)pyrimidin-2-yl]amino}phenyl)-1,3-thiazol-2-yl]ethyl}-1-methylcyclohexanol] |
| ≤ 100 |  | Cc1cc(Nc2nccc(C(F)(F)F)n2)cc(-c2cnc([C@@](O)(C3CC3)[C@H]3CC[C@H](C(=O)O)CC3)s2)c1 (single isomer, unassigned) [Example 2 (from Intermediate 28 slower eluting enantiomer), trans-4-{(R or S)-cyclopropyl(hydroxy)[5-(3-methyl-5-{[4-(trifluoromethyl)pyrimidin-2-yl]amino}phenyl)-1,3-thiazol-2-yl]methyl}cyclohexanecarboxylic] |
| ≤ 100 | 1 | C[C@@](O)(c1ncc(-c2cc(F)cc(Nc3nccc(C(F)(F)F)n3)c2)s1)[C@H]1CC[C@H](C(=O)O)CC1 (single isomer, unassigned) [Example 17, trans-4-{(1R or 1S)-1-[5-(3-fluoro-5-{[4-(trifluoromethyl)pyrimidin-2-yl]amino}phenyl)-1,3-thiazol-2-yl]-1-hydroxyethyl}cyclohexanecarboxylic acid] |
| ≤ 100 | 2 | Cc1cc(Nc2nccc(C(F)(F)F)n2)cc(-c2cnc(C(F)C3CCC(C(=O)O)CC3)s2)c1 (stereo not shown) [Example 4-6] |
| ≤ 100 |  | Cc1cc(Nc2nccc(C(F)(F)F)n2)cc(-c2cnc(C(C)(O)C3CCC(C(=O)O)C3)s2)c1 (stereo not shown) [Example 3-3] |
| ≤ 100 |  | Cc1cc(Nc2nccc(C(F)(F)F)n2)cc(-c2cnc([C@@](O)(CF)[C@H]3CC[C@H](C(=O)O)CC3)s2)c1 [Example 10] |
| ≤ 100 |  | Cc1cc(Nc2nccc(C(F)(F)F)n2)cc(-c2cnc(C(C)(O)C3CCC(C(=O)O)C3)s2)c1 (stereo not shown) [Example 3-1] |
| ≤ 100 |  | Cc1ccnc(Nc2cc(C)c(Br)c(-c3cnc([C@](C)(O)[C@H]4CC[C@H](C(=O)O)CC4)s3)c2)n1 (single isomer, unassigned) [Example 8, trans-4-[(1R or 1S)-1-(5-{2-bromo-3-methyl-5-[(4-methylpyrimidin-2-yl)amino]phenyl}-1,3-thiazol-2-yl)-1-hydroxyethyl]cyclohexanecarboxylic acid] |
